Consider 14 compounds from patent US20180194762A1 (Pharmacyclics LLC, priority 2017, published 2018).

Holding throughout (type): biochemical
Assay [1] concerns the target T1, Btk (Homo sapiens, UniProt Q06187).
T1 construct: purified from insect cells as a full-length construct containing a N-terminal 6X-His tag; His6 (N); made in house; host or cells: insect cells (Method C)
Nature of the assay: Btk in vitro inhibitory activity (one of Method A TR-FRET, Method B electrophoretic mobility shift, Method C radiometric filter binding). The procedure, abridged: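 Method A: TR-FRET with 0.5 nM Btk at [ATP]=Km, EDTA-quenched, 665/615 nm ratio; Ki(app) converted to IC50. Method B: 1 nM full-length His6 human BTK, 1 μM FAM peptide, pH 7.5, mobility-shift product/sum ratio, 12-point 4-parameter fit. Method C: radiometric filter binding, 8 nM His-tagged BTK, 0.2 mg/mL poly-Glu-Tyr.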

The target in assay [2] is T2, panel of kinases (Homo sapiens, UniProt P51813).
T2 sequence (P51813 1-675): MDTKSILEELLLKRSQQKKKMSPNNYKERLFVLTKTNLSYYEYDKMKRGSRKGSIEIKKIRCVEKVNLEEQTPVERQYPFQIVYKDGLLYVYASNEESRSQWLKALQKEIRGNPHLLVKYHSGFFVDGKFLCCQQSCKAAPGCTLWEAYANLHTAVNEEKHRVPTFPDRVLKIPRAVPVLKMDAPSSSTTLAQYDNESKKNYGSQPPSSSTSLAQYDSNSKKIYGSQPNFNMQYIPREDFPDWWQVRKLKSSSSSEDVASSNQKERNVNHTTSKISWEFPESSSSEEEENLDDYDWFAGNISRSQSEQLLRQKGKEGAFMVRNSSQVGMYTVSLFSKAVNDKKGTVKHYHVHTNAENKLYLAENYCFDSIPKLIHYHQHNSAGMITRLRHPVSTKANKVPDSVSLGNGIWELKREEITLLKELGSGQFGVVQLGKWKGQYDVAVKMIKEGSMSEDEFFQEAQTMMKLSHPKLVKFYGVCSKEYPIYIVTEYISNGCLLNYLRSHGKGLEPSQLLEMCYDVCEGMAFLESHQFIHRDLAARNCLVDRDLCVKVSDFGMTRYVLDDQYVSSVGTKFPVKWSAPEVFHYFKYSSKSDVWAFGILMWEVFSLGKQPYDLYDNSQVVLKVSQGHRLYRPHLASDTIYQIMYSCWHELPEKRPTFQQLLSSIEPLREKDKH
The assay can be described thus: Inhibition of a panel of kinases (in vitro HotSpot kinase assay, 33P-ATP, 1 μM ATP), other kinases. Particulars: BMX wild-type, read-out: BMX-WT IC50. The procedure, abridged: (§1)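 Degree of kinase inhibition is determined in vitro using isolated enzymes, a matched substrate and radiolabelled ATP (1 μM).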

The target of assay [3] is T3, TEC (Homo sapiens, UniProt P42680).
T3 sequence (P42680 1-631): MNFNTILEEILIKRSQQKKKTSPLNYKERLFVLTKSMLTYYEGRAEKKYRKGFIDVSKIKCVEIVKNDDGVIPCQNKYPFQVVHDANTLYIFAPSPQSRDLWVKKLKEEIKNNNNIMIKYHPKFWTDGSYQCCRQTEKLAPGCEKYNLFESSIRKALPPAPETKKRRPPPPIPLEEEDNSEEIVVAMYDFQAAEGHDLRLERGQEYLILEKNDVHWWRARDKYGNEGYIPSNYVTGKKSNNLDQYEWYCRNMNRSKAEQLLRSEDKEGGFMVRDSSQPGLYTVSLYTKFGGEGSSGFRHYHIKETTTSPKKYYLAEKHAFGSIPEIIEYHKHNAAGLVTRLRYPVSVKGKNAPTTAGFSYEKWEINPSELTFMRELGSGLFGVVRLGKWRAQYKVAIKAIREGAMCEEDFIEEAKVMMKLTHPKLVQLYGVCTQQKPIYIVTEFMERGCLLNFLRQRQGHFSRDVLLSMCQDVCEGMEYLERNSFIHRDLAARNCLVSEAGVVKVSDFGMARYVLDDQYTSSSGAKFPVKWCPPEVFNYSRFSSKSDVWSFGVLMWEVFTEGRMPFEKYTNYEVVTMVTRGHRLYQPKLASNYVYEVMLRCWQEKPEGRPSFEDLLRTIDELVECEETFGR
The assay can be described thus: Inhibition of a panel of kinases (in vitro HotSpot kinase assay, 33P-ATP, 1 μM ATP). To be noted: for IC50: HotSpot kinase assay, 1 μM ATP; for TEC/Btk: ratio of TEC IC50 to Btk IC50 (selectivity). A digest of the protocol: as §1

[4] abbreviates: wild-type Btk, read-out: Btk-WT IC50.
Setting [5] is: method is one of A, B or C, not stated which, read-out: IC50 values against Btk.

Read-outs that look alike come from different tables or passages of the source. Where only a bound is given, the exact number is not on record here.

T1 sequence (Q06187 whole entry): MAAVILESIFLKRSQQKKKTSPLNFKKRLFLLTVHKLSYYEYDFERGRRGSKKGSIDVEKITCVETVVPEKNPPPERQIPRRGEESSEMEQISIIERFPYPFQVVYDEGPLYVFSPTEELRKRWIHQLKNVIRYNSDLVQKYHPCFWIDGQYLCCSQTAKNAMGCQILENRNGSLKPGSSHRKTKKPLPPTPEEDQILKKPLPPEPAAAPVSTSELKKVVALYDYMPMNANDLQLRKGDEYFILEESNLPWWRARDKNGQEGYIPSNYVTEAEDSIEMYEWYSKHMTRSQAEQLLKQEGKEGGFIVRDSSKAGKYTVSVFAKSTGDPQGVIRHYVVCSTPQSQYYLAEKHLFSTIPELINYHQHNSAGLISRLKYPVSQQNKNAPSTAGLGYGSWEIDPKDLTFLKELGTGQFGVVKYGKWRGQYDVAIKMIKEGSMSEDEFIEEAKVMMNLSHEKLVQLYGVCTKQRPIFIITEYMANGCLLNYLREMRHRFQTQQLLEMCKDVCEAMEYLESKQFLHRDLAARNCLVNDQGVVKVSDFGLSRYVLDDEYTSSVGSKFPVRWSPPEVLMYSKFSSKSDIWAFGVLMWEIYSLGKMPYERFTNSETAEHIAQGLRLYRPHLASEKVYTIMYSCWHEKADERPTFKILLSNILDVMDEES

As to `C=CC(=O)N1CC[C@@H](Nc2n[nH]c3nccc(-c4ccc(CNC(=O)c5cc(C(C)(C)O)on5)c(F)c4)c23)C1` [Example 294, N-{[2-fluoro-4-(3-{[(3R)-1-(prop-2-enoyl)pyrrolidin-3-yl]amino}-1H-pyrazolo[3,4-b]pyridin-4-yl)phenyl]methyl}-5-(2-hydroxypropan-2-yl)-1,2-oxazole-3-carboxamide], the IC50 in assay [1] (setting [4]) stood at 1.45 nM; in assay [2], 90 nM; in assay [3], 118 nM.
In the case of `C[C@H]1CC[C@@H](Nc2n[nH]c3nccc(-c4ccc(CNC(=O)c5noc(C(C)(C)C)n5)c(F)c4)c23)CN1C(=O)C1CC1` [Example 127, 5-tert-butyl-N-{[4-(3-{[(3R,6S)-1-cyclopropanecarbonyl-6-methylpiperidin-3-yl]amino}-1H-pyrazolo[3,4-b]pyridin-4-yl)-2-fluorophenyl]methyl}-1,2,4-oxadiazole-3-carboxamide], the IC50 in assay [1] (setting [5]) was below 10 nM; in assay [1] (setting [4]), 2.05 nM; in assay [2] it was 1550 nM; in assay [3], 698 nM. For the same compound, the TEC/Btk in assay [3] turned out to be 340.
With `C[C@H]1CC[C@@H](Nc2n[nH]c3nccc(-c4ccc(CNC(=O)c5ccc(C(C)(C)O)cc5F)c(F)c4)c23)CN1C(=O)N(C)C` [Example 414, (2S,5R)-5-{[4-(3-fluoro-4-{[2-fluoro-4-(2-hydroxypropan-2-yl)benzamido]methyl}phenyl)-1H-pyrazolo[3,4-b]pyridin-3-yl]amino}-N,N,2-trimethylpiperidine-1-carboxamide], the IC50 in assay [1] (setting [4]) amounted to 59.2 nM; in assay [2] it was 3250 nM; in assay [3], 1040 nM.
Turning to `CC(C)c1noc(C(=O)N[C@H](C)c2ccc(-c3ccnc4[nH]nc(N5CCOCC5)c34)cc2)n1` [Example 389, N-[(1R)-1-{4-[3-(morpholin-4-yl)-1H-pyrazolo[3,4-b]pyridin-4-yl]phenyl}ethyl]-3-(propan-2-yl)-1,2,4-oxadiazole-5-carboxamide], the values for the IC50 in assay [1] (setting [4]), in assay [2] and in assay [3] were 4.05 nM, 502 nM and 914 nM, respectively.
Take `CC(=O)N1CC[C@H](Nc2n[nH]c3nccc(-c4ccc(CNC(=O)c5nc(C(C)(C)C)no5)c(F)c4)c23)C1` [Example 164, N-{[4-(3-{[(3S)-1-acetylpyrrolidin-3-yl]amino}-1H-pyrazolo[3,4-b]pyridin-4-yl)-2-fluorophenyl]methyl}-3-tert-butyl-1,2,4-oxadiazole-5-carboxamide]: the IC50 was 11.3 nM in assay [1] (setting [4]), 8340 nM in assay [2] and 8070 nM in assay [3]. Moreover, the TEC/Btk in assay [3] was found to be 714.
With `CC(C)(C)c1nc(C(=O)Nc2cccc(-c3ccnc4[nH]nc(N[C@@H]5CCNC5)c34)c2CO)no1` [Example 165, t-tert-butyl-N-[2-(hydroxymethyl)-3-(3-{[(3R)-pyrrolidin-3-yl]amino}-1H-pyrazolo[3,4-b]pyridin-4-yl)phenyl]-1,2,4-oxadiazole-3-carboxamide], the IC50 in assay [1] (setting [4]), in assay [2] and in assay [3] was above 10000 nM in each case. Besides, the TEC/Btk in assay [3] is listed as above 100.
In the case of `CN(C)C(=O)N1CCC[C@@H](Nc2n[nH]c3nccc(-c4ccc(CNC(=O)c5noc(C(C)(C)C)n5)c(F)c4)c23)C1` [Example 116, (3R)-3-{[4-(4-{[(5-tert-butyl-1,2,4-oxadiazol-3-yl) formamido]methyl}-3-fluorophenyl)-1H-pyrazolo[3,4-b]pyridin-3-yl]amino}-N,N-dimethylpiperidine-1-carboxamide], the IC50 in assay [1] (setting [4]) was 11 nM; in assay [2] it was 3790 nM; in assay [3], 4470 nM. Further, the TEC/Btk in assay [3] turned out to be 406.
`CC(C)(C)c1ccc(C(=O)Nc2cccc(-c3ccnc4[nH]nc(N[C@@H]5CCNC5)c34)c2CO)cc1` [Example 150, 4-tert-butyl-N-[2-(hydroxymethyl)-3-(3-{[(3R)-pyrrolidin-3-yl]amino}-1H-pyrazolo[3,4-b]pyridin-4-yl)phenyl]benzamide]: the values for the IC50 in assay [1] (setting [4]), in assay [2] and in assay [3] were 35.3 nM, above 10000 nM and above 10000 nM, respectively. For the same compound, the TEC/Btk in assay [3] was above 100.
For `CC(C)(C)c1nc(NC(=O)Cc2ccc(-c3ccnc4[nH]nc(N[C@@H]5CCNC5)c34)cc2F)no1` [Example 123, N-(5-tert-butyl-1,2,4-oxadiazol-3-yl)-2-[2-fluoro-4-(3-{[(3R)-pyrrolidin-3-yl]amino}-1H-pyrazolo[3,4-b]pyridin-4-yl)phenyl]acetamide], the IC50 in assay [1] (setting [4]), in assay [2] and in assay [3] was above 10000 nM in each case.
Turning to `C[C@@H](NC(=O)c1noc(C(C)(C)C)n1)c1ccc(-c2ccnc3[nH]nc(N[C@@H]4CCNC4)c23)cc1` [Example 73, 5-tert-butyl-N-[(1R)-1-[4-(3-{[(3R)-pyrrolidin-3-yl]amino}-1H-pyrazolo[3,4-b]pyridin-4-yl)phenyl]ethyl]-1,2,4-oxadiazole-3-carboxamide], the IC50 in assay [1] (setting [4]) is 37.9 nM; in assay [2], above 10000 nM; in assay [3], above 10000 nM. The TEC/Btk in assay [3] is recorded as above 100.
Turning to `C=CC(=O)N1CC[C@@H](Nc2n[nH]c3nccc(-c4ccc(CNC(=O)c5noc(C(C)(C)C)n5)cc4)c23)C1` [Example 175, 5-tert-butyl-N-{[4-(3-{[(3R)-1-(prop-2-enoyl)pyrrolidin-3-yl]amino}-1H-pyrazolo[3,4-b]pyridin-4-yl)phenyl]methyl}-1,2,4-oxadiazole-3-carboxamide], the IC50 in assay [1] (setting [5]) was below 10 nM; in assay [1] (setting [4]), 0.189 nM; in assay [2] it was 201 nM; in assay [3], 55 nM. Besides, the TEC/Btk in assay [3] was 289.
In the case of `CN(C)C(=O)N1CC[C@@H](Nc2n[nH]c3nccc(-c4ccc(C5(NC(=O)c6nc(C(C)(C)C)no6)CC5)cc4)c23)C1` [Example 117, 3-tert-butyl-N-{1-[4-(3-{[(3R)-1-(dimethylcarbamoyl)pyrrolidin-3-yl]amino}-1H-pyrazolo[3,4-b]pyridin-4-yl)phenyl]cyclopropyl}-1,2,4-oxadiazole-5-carboxamide], the IC50 in assay [1] (setting [4]) was 46.2 nM; in assay [2], 5960 nM; in assay [3], above 10000 nM. Moreover, the TEC/Btk in assay [3] is reported as above 100.
For `CC(C)(C)c1nc(C(=O)NCc2ccc(-c3ccnc4[nH]nc(N5CC[C@@H](N)C5)c34)cc2F)no1` [Example 108, N-[(4-{3-[(3R)-3-aminopyrrolidin-1-yl]-1H-pyrazolo[3,4-b]pyridin-4-yl}-2-fluorophenyl)methyl]-5-tert-butyl-1,2,4-oxadiazole-3-carboxamide], the IC50 in assay [1] (setting [5]) is below 10 nM; in assay [1] (setting [4]), 1.77 nM; in assay [2], 1730 nM; in assay [3], 1650 nM.
On to `CNC1CCN(c2n[nH]c3nccc(-c4ccc(CNC(=O)c5nc(C(C)(C)C)no5)c(F)c4)c23)C1` (centres unmarked) [Example 333, 3-tert-butyl-N-[(2-fluoro-4-{3-[3-(methylamino)pyrrolidin-1-yl]-1H-pyrazolo[3,4-b]pyridin-4-yl}phenyl)methyl]-1,2,4-oxadiazole-5-carboxamide], for which the IC50 was 1.26 nM in assay [1] (setting [4]), 4470 nM in assay [2] and 4360 nM in assay [3].

As usually defined, the IC50 is the concentration at which inhibition is half-maximal.
